The values below come from US7655659B2, “Biomimetic of Evodia rutaecarpa fruit extract for amelioration of inflammation” (Applied Genetics Incorporated Dermatics, priority 2004, dated 2010).

Read-outs that look alike come from different tables or passages of the source. Where only a bound is given, the exact number is not on record here.

One assay addresses T1, COX-2 (Homo sapiens, UniProt P35354).
T1 construct: purchased Cayman, Ann Arbor, Mich
T1 sequence (P35354 18-604): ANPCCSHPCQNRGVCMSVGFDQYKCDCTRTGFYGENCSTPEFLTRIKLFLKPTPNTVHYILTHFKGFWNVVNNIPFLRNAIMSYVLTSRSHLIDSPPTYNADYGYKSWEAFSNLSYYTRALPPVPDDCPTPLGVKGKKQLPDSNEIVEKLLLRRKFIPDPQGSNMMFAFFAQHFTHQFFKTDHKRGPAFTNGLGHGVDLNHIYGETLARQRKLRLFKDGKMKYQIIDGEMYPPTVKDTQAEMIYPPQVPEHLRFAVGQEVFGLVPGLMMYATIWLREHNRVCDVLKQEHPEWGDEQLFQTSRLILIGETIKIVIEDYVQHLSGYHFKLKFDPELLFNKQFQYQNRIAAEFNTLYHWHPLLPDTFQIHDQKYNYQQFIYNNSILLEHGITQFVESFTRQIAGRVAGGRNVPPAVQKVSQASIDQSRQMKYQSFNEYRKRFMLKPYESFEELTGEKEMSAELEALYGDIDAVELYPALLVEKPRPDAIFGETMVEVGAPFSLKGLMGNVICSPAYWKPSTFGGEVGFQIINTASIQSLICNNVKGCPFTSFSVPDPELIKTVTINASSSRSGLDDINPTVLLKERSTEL
The experiment in a line: In vitro purified COX-2 enzyme assay (Cayman COX Inhibitor Screening Assay). Type of assay: biochemical. The settings on record: for IC50: in vitro. The protocol: It is well known that the major source of inducible prostaglandin release from cells is related to induction of cyclo-oxygenase 2 (COX-2). […] The assay was a commercially available COX Inhibitor Screening Assay (Cayman, Ann Arbor, Mich.) run according to the manufacturer's instructions.
Fractions were analyzed for COX-2 inhibitory activity using the in vitro assay employed in the previous example.

For a further assay, the target named is T2, COX-1 (Ovis aries, UniProt P05979).
T2 sequence (P05979 25-600): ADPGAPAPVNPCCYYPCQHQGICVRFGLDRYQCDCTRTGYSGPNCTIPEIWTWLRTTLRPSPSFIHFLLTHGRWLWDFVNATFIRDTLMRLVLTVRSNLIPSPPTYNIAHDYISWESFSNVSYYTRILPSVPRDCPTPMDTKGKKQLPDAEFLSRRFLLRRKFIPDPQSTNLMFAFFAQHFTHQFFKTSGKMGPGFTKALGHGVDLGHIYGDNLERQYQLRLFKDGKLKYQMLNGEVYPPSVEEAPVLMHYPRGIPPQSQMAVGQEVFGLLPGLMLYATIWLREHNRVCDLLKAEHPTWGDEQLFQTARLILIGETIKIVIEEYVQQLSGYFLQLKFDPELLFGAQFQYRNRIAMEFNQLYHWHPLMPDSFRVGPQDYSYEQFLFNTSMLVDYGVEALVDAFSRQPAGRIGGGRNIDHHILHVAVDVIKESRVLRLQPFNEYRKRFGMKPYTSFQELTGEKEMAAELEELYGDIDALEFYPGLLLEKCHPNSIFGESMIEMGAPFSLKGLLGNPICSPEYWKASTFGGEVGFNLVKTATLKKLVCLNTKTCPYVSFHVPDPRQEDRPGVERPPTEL
Kind of assay: In vitro COX-1 enzyme assay.

The test system of another assay is HaCaT cells. The experiment in a line: Inhibition of UVB-induced PGE2 secretion from HaCaT keratinocytes (PGE2 ELISA). The settings on record: for μg/ml to inhibit 80% of PGE2 secretion: UVB-irradiated HaCaT cells. The format is cell-based. The protocol:
The HaCaT keratinocyte cell line was cultured in GibcoBRL (Grand Island, N.Y.) D-MEM low glucose medium containing 10% heat inactivated fetal bovine serum, 1% penicillin/streptomycin, 1% L-glutamine, and 1% nonessential amino acids. […] The media was harvested 24 hours after UVB irradiation and analyzed for prostaglandin E2 (PGE2) content using a PGE2 ELISA kit (R & D Systems Catalogue Number DE0100).
The observation that the selectivity of the Evodia rutaecarpa extract (216, see Example 1) was greater than the selectivity of purified BHT (87, Table 3) led us to conclude that there is synergy among the components in inhibiting COX-2. Initial data is consistent with this synergy existing also in the biomimetic of the present invention. The ability of BHT to inhibit PG secretion from UVB-irradiated HaCaT cells was examined by treating cells with BHT immediately after UVB irradiation. The media was harvested 24 hours later and analyzed for PGE2 content using a PGE2 ELISA kit (R & D Systems, Minneapolis, Minn., USA). BHT inhibited UVB-induced PG secretion at 2-20 μg/ml, which is in the range of the IC50 for inhibition of COX-2 in vitro.
The preferred Evodia mixture of Table 4 was examined for its ability to inhibit UVB-induced PGE2 secretion from HaCaT cells. […] This illustrates the discovery that the Evodia rutaecarpa extract contains a compound which blocks this activity and that when the inhibitor is removed the components act synergistically to inhibit UVB-induced PGE2. The preferred Evodia mixture was also effective at inhibiting the COX-2 enzyme in vitro. […] Thus, while the Evodia mixture is useful for inhibiting UVB-induced PGE2 secretion from skin cells when used at 0.01% (v/v) (FIG. 4), for inflammatory conditions mediated exclusively by COX-2, the preferred formulation would contain at least 1% (v/v) Evodia mixture.
On the technique in general: In an ELISA, binding on a coated surface is turned into a signal by an enzyme label.

A further assay has as its system human skin. The experiment in a line: Methyl nicotinate-induced erythema in human skin (Dermaspectrometer). Type of assay: in vivo. The settings on record: hydrogel lotion; Evodia mixture 1% (v/v) = 60.8 μg/ml actives, bisabolol 61 μg/ml.
Assay [1] relates to human microvascular endothelial cells (HMVEC). Kind of assay: Nitric oxide release from endothelial cells treated with methyl nicotinate (Greiss reagents). The settings on record: 24 hours; at much lower concentrations than for PGD2 and PGE2 (FIG. 5B). Type of assay: cell-based. The procedure:
(§1) Normal human epidermal keratinocytes (NHEK) and human microvascular endothelial cells (HMVEC) were obtained from a commercial supplier (Cascade Biologics, Portland, Oreg., USA) and cultured according to the manufacturer's recommendations. Methyl nicotinate was made up as a IM stock solution in H2O. The stock solution was diluted to 100 mM in H2O. The 100 mM methyl nicotinate was further diluted to 125 to 1000 μM methyl nicotinate in the cell culture media and the NHEK and HMVEC cells were treated when they had grown to approximately 70% confluency with fresh media containing the methyl nicotinate. After 24 hours of incubation in the methyl nicotinate media, the cultured media was collected. Nitric oxide was measured using the Greiss reagents as described in the Calbiochem colorimetric nitric oxide assay kit (Calbiochem, San Diego, Calif.). PGs in the cell culture media were analyzed using commercially available PGD2 and PGE2 ELISA kits (R & D Systems, Minneapolis, Minn., USA). […] This is in accordance with studies on human skin showing that erythema induced by topical application of methyl nicotinate is mediated by PGD2 (Morrow et al., 1992). […] Since NO is a vasodilatory agent that induces skin erythema, methyl nicotinate can thus induce skin erythema by induction of NO as well as via induction of PGD2 and PGE2. […]

Assay [2] concerns normal human epidermal keratinocytes (NHEK). The experiment in a line: Prostaglandin secretion from cultured skin cells treated with methyl nicotinate (PGD2 and PGE2 ELISA). Type of assay: cell-based. The settings on record: NHEK and also HMVEC, 125 to 1000 μM. The procedure:
as §1

[3] abbreviates: read-out: IC50 COX-2 (converted).

Procedure for human skin: Each application area was demarked by an adjacent label made with a permanent black ink marker. One hour prior to the methyl nicotinate challenge dose, the Evodia mixture lotion was applied liberally to treatment spots. A Carbopol® hydrogel lotion containing no Evodia mixture was used as a vehicle control. […] Immediately thereafter, 10 μL of a 0.14 mg/ml methyl nicotinate solution in water was applied to each treatment spot. Erythema was read 15, 30, 60 and 90 minutes later. […] Results for all the subjects were calculated as change of erythema readings from time zero.
The same protocol as described above was followed with five sites treated twice daily for two weeks. Three sites were treated with test articles of 0.1%, 0.3% and 1.0% (v/v) Evodia mixture in hydrogel lotion, one site was treated with a vehicle control lotion and one site was not treated with either lotion or methyl nicotinate.
A side by side comparison was made between the Evodia mixture and bisabolol, each formulated in a hydrogel lotion, with bisabolol equal to the total amount of actives in the Evodia mixture.

With `C[C@H]1[C@H](C)CC[C@]2(C(=O)O)CC[C@]3(C)C(=CC[C@@H]4[C@@]5(C)CC[C@H](O)C(C)(C)[C@@H]5CC[C@]43C)[C@H]12` [Ursolic Acid (URA), ursolic acid], the IC50 at COX-2 (setting [3]) was 59.1 µM. As for `Cc1cc(C(C)(C)C)c(O)c(C(C)(C)C)c1` [Butylated Hydroxytoluene (BHT), butylated hydroxytoluene], the values for the IC50 against COX-1 and at COX-2 (setting [3]) were 5900 µM and 68.1 µM, respectively. Further, the “Selectivity COX-1/COX-2” value at COX-2 (ratio of IC50s) came to 87. In the assay on HaCaT cells (cells treated immediately after UVB, media harvested 24 hours later), the “concentration inhibiting UVB-induced PG secretion” value was 2 to 20 µg/mL.

Regarding `CC(C)=CCC[C@](C)(O)C1CC=C(C)CC1` (stereo partly drawn) [bisabolol], in the assay with human skin, the “effect on methyl nicotinate mediated erythema, side by side comparison” value was “ineffective”.

Take `COC(=O)c1cccnc1` [methyl nicotinate]: the “NO secretion from HMVEC” value in assay [1] is “induced”. Moreover, the PGD2 secretion result in assay [2] (24 hours (FIG. 5A)) is given as “induced”. Further, in assay [2] (24 hours (data not shown)), the PGE2 secretion entry was “induced”. Regarding `C[n+]1c2n(c(=O)c3ccccc31)CCc1c-2[nH]c2ccccc12` [dehydroevodiamine], on COX-2 (read-out: μg/ml to inhibit 50% of COX-2 activity), the IC50 was over 24.8 µM.

evodiamine: in the assay on HaCaT cells, the “μg/ml to inhibit 80% of PGE2 secretion” value was 0.3 µg/mL. Take `O=c1c2ccccc2nc2n1CCc1c-2[nH]c2ccccc12` [rutaecarpine]: the “μg/ml to inhibit 80% of PGE2 secretion” value with HaCaT cells is 0.3 µg/mL.
